Experimental data published in ChEMBL document CHEMBL1201862, “PubChem BioAssay data set” (2004).
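Where inhibition never reached the appropriate level, the endpoint shown equals the highest concentration tested. Otherwise, values were interpolated linearly from a five-concentration, 48-hour dose response in 96-well plates. GI50 = concentration required for 50% inhibition of growth.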 The source made the active and inactive calls. No stated cut-off is given here; in the data, active = GI50 up to about 1.1 µM and inactive = higher.

Tests used:
Assay in all cases: inhibition of tumour cell growth, NCI panel, 48 h
CAKI-1 = tested on: CAKI-1
CCRF-CEM = tested on: CCRF-CEM
HCT-15 = tested on: HCT-15
HOP-92 = tested on: HOP-92
HT-29 = tested on: HT-29
IGROV-1 = tested on: IGROV-1
KM12 = tested on: KM12
Malme-3M = tested on: Malme-3M
NCI-H460 = tested on: NCI-H460
OVCAR-3 = tested on: OVCAR-3
OVCAR-5 = tested on: OVCAR-5
SF-539 = tested on: SF-539
SK-MEL-5 = tested on: SK-MEL-5
SK-OV-3 = tested on: SK-OV-3
SN12C = tested on: SN12C
SW-620 = tested on: SW-620
TK-10 = tested on: TK-10
UACC-62 = tested on: UACC-62
MDA-MB-231 = tested on: MDA-MB-231

| SMILES | GI50 (CAKI-1) | GI50 (CCRF-CEM) | GI50 (HCT-15) | GI50 (HOP-92) | GI50 (HT-29) | GI50 (IGROV-1) | GI50 (KM12) | GI50 (Malme-3M) | GI50 (NCI-H460) | GI50 (OVCAR-3) | GI50 (OVCAR-5) | GI50 (SF-539) | GI50 (SK-MEL-5) | GI50 (SK-OV-3) | GI50 (SN12C) | GI50 (SW-620) | GI50 (TK-10) | GI50 (UACC-62) | GI50 (MDA-MB-231) |
| --- | --- | --- | --- | --- | --- | --- | --- | --- | --- | --- | --- | --- | --- | --- | --- | --- | --- | --- | --- |
| C(=N\OCc1ccccc1)/c1ncccc1C1OCCO1 | > 100 µM (inactive) | > 100 µM (inactive) | > 100 µM | > 100 µM (inactive) | > 100 µM (inactive) | > 100 µM (inactive) | > 100 µM (inactive) | > 100 µM (inactive) | > 100 µM (inactive) | > 100 µM (inactive) | > 100 µM (inactive) | > 100 µM (inactive) | > 100 µM (inactive) | > 100 µM (inactive) | > 100 µM (inactive) | > 100 µM (inactive) | > 100 µM (inactive) | > 100 µM (inactive) |  |
| CN(/N=C/c1cccc2cccnc12)c1ccc([N+](=O)[O-])cc1 | > 100 µM (inactive) | > 100 µM (inactive) | > 100 µM | > 100 µM (inactive) | 20.7 µM (inactive) | > 100 µM (inactive) | > 100 µM (inactive) | > 100 µM (inactive) | 8.07 µM (inactive) | > 100 µM (inactive) | > 100 µM (inactive) | 7.69 µM (inactive) | > 100 µM (inactive) | 43.1 µM (inactive) | > 100 µM (inactive) | > 100 µM (inactive) | 91.2 µM (inactive) | > 100 µM (inactive) |  |
| Cl[Si]1(Cl)Oc2ccccc2O[Si](Cl)(Cl)Oc2ccccc2O1 | 28.4 µM (inactive) | 1.45 µM (inactive) | 21 µM | 17.7 µM (inactive) | 17 µM (inactive) | 28.6 µM (inactive) | 34.3 µM (inactive) | 18.7 µM (inactive) | 6.9 µM (inactive) | 21.7 µM (inactive) | 27.7 µM (inactive) | 20.3 µM (inactive) | 12.4 µM (inactive) | 54.3 µM (inactive) | 6.7 µM (inactive) | 15 µM (inactive) | 46.1 µM (inactive) | 5.08 µM (inactive) |  |
| COc1cc(OC)c2c(c1)C(=O)C(CC1(C)OCCCO1)=CC2=O | 8 µM (inactive) | 1.74 µM (inactive) | 3.92 µM | 1.83 µM (inactive) | 13.8 µM (inactive) | 17.9 µM (inactive) | 14.3 µM (inactive) | 8.45 µM (inactive) | 18.6 µM (inactive) | 8.55 µM (inactive) | 16.9 µM (inactive) | 12.8 µM (inactive) | 8.04 µM (inactive) | 20 µM (inactive) | 14 µM (inactive) | 7.57 µM (inactive) | 12.5 µM (inactive) | 5 µM (inactive) |  |
| COC(=O)C(=O)C(C(=O)C(=O)Nc1ccc(C)c(C)c1)c1nc2ccc([N+](=O)[O-])cc2nc1O (centres undefined) | > 100 µM (inactive) | > 100 µM (inactive) | > 100 µM | > 100 µM (inactive) | > 100 µM (inactive) | > 100 µM (inactive) | > 100 µM (inactive) | > 100 µM (inactive) | > 100 µM (inactive) | > 100 µM (inactive) | > 100 µM (inactive) | > 100 µM (inactive) | > 100 µM (inactive) | > 100 µM (inactive) | > 100 µM (inactive) | > 100 µM (inactive) | > 100 µM (inactive) | > 100 µM (inactive) | > 100 µM (inactive) |
| CCC12C=CCN3CC[C@]4(C(=C(C(=O)OC)[C@@H]1Nc1ncnc5c1ncn5C1OC(COC(C)=O)C(OC(C)=O)C1OC(C)=O)Nc1ccccc14)C32 (some centres undefined) | 3.42 µM (inactive) | 2.45 µM (inactive) | 3.04 µM | 2.39 µM (inactive) | 2.23 µM (inactive) | 2.85 µM (inactive) | 2.42 µM (inactive) | 4.9 µM (inactive) | 2.51 µM (inactive) | 1.98 µM (inactive) | 3.47 µM (inactive) | 2.18 µM (inactive) | 2.55 µM (inactive) | 2.36 µM (inactive) | 2.01 µM (inactive) | 2.45 µM (inactive) | 2.87 µM (inactive) | 3.11 µM (inactive) |  |
| C=C1CCCC2OC(OC)CCC12 (centres undefined) | > 100 µM (inactive) | > 100 µM (inactive) | > 100 µM | > 100 µM (inactive) | > 100 µM (inactive) | > 100 µM (inactive) | > 100 µM (inactive) | > 100 µM (inactive) | > 100 µM (inactive) | > 100 µM (inactive) | > 100 µM (inactive) | > 100 µM (inactive) | > 100 µM (inactive) | > 100 µM (inactive) | > 100 µM (inactive) | > 100 µM (inactive) | > 100 µM (inactive) | > 100 µM (inactive) |  |
| OCC1OC(c2nc(C3=NCCCN3)cs2)C(O)C1O (centres undefined) | > 100 µM (inactive) | > 100 µM (inactive) | > 100 µM | > 100 µM (inactive) | > 100 µM (inactive) | > 100 µM (inactive) | > 10 µM (inactive) | > 100 µM (inactive) | > 100 µM (inactive) | > 10 µM (inactive) | > 100 µM (inactive) | > 100 µM (inactive) |  | > 100 µM (inactive) | > 100 µM (inactive) | > 100 µM (inactive) | > 100 µM (inactive) | > 100 µM (inactive) |  |
